Reference: PMC9897758, “Computational prediction and in vitro analysis of the potential ligand binding site within the extracellular ATP receptor, P2K2” (Plant Signaling & Behavior, 2023)
Residue numbers refer to the chain shown, from its start.

Tests used:
Assay in all cases: radioligand binding, gel filtration separation of bound and free ATP, saturation fit
[1] = target: T1, P2K2 extracellular lectin domain (LecRK-I.5), GST-tagged (Arabidopsis thaliana, UniProt Q9M1G4)
T1 construct: gene LECRK15; extracellular lectin domain (ectodomain), GST fusion, purified from E. coli BL21-AI
T1 sequence (Q9M1G4 23-286 limits assumed): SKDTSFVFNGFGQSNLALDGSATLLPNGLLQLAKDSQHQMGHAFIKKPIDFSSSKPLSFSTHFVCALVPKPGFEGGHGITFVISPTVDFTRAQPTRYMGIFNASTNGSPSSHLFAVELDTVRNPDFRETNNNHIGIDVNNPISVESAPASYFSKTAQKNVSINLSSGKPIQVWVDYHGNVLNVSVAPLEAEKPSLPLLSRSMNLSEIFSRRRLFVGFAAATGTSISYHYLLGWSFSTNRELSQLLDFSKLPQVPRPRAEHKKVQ

[2] = target: T2, P2K2 extracellular lectin domain (LecRK-I.5), GST-tagged (Arabidopsis thaliana, UniProt Q9M1G4, H99A)
T2 construct: gene LECRK15; extracellular lectin domain (ectodomain), GST fusion, purified from E. coli BL21-AI
T2 sequence (Q9M1G4 23-286 H99A limits assumed): T1 sequence (Q9M1G4 23-286 limits assumed) with H77A

[3] = target: T3, P2K2 extracellular lectin domain (LecRK-I.5), GST-tagged (Arabidopsis thaliana, UniProt Q9M1G4, S246A)
T3 construct: gene LECRK15; extracellular lectin domain (ectodomain), GST fusion, purified from E. coli BL21-AI
T3 sequence (Q9M1G4 23-286 S246A limits assumed): T1 sequence (Q9M1G4 23-286 limits assumed) with S224A

[4] = target: T4, P2K2 extracellular lectin domain (LecRK-I.5), GST-tagged (Arabidopsis thaliana, UniProt Q9M1G4, T245A)
T4 construct: gene LECRK15; extracellular lectin domain (ectodomain), GST fusion, purified from E. coli BL21-AI
T4 sequence (Q9M1G4 23-286 T245A limits assumed): T1 sequence (Q9M1G4 23-286 limits assumed) with T223A

[5] = target: T5, P2K2 extracellular lectin domain (LecRK-I.5), GST-tagged (Arabidopsis thaliana, UniProt Q9M1G4, R144A)
T5 construct: gene LECRK15; extracellular lectin domain (ectodomain), GST fusion, purified from E. coli BL21-AI
T5 sequence (Q9M1G4 23-286 R144A limits assumed): T1 sequence (Q9M1G4 23-286 limits assumed) with R122A

Kd [1]: 41.6 ± 13.8 nM | Kd [2]: > 1000 nM | Kd [3]: 109 ± 29.7 nM | Kd [4]: 41.7 ± 14.1 nM | Kd [5]: 104 ± 25 nM
Structure (SMILES): Nc1ncnc2c1ncn2[C@@H]1O[C@H](COP(=O)(O)OP(=O)(O)OP(=O)(O)O)[C@@H](O)[C@H]1O [ATP]
